Experimental findings from US11981661B2, “Heterocyclic compounds” (Hoffmann-La Roche Inc., priority 2020, dated 2024) are described below.

A value given as a limit tells only on which side of the number the result lay.

Broadly, the IC50 is the midpoint of a concentration-inhibition curve.

The test deals with T1, MAGL (Homo sapiens, UniProt Q99685).
T1 sequence (Q99685 1-303): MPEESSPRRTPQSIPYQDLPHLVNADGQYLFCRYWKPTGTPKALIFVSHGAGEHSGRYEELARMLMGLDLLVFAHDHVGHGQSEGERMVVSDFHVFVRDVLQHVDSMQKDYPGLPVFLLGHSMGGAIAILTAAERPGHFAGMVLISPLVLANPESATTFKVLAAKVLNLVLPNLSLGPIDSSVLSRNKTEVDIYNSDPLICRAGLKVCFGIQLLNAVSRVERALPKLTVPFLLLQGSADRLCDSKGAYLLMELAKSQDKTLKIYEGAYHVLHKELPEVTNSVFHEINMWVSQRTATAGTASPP
As to the kind of experiment: 2-AG assay (MAGL inhibitory activity, hydrolysis of 2-arachidonoylglycerol followed by mass spectrometry). To be noted: 50 pM MAGL, 8 μM 2-arachidonoylglycerol, 15 min preincubation, 30 min incubation at RT, concentration range 12.5 μM to 0.8 pM. The format is biochemical. The method, then:
Compounds were profiled for MAGL inhibitory activity by determining the enzymatic activity by following the hydrolysis of the natural substrate 2-arachidonoylglycerol resulting in arachidonic acid, which can be followed by mass spectrometry. This assay is hereinafter abbreviated “2-AG assay”.
The 2-AG assay was carried out in 384 well assay plates (PP, Greiner Cat #784201) in a total volume of 20 μL. Compound dilutions were made in 100% DMSO (VWR Chemicals 23500.297) in a polypropylene plate in 3-fold dilution steps to give a final concentration range in the assay from 12.5 μM to 0.8 pM. 0.25 μL compound dilutions (100% DMSO) were added to 9 μL MAGL in assay buffer (50 mM TRIS (GIBCO, 15567-027), 1 mM EDTA (Fluka, 03690-100 mL), 0.01% (v/v) Tween. After shaking, the plate was incubated for 15 min at RT. To start the reaction, 10 μL 2-arachidonoylglycerol in assay buffer was added. The final concentrations in the assay was 50 pM MAGL and 8 μM 2-arachidonoylglyerol. After shaking and 30 min incubation at RT, the reaction was quenched by the addition of 40 μL of ACN containing 4 μM of d8-arachidonic acid. The amount of arachidonic acid was traced by an online SPE system (Agilent Rapidfire) coupled to a triple quadrupole mass spectrometer (Agilent 6460). A C18 SPE cartridge (G9205A) was used in an ACN/water liquid setup. The mass spectrometer was operated in negative electrospray mode following the mass transitions 303.1→259.1 for arachidonic acid and 311.1→267.0 for d8-arachidonic acid. The activity of the compounds was calculated based on the ratio of intensities [arachidonic acid/d8-arachidonic acid].
`O=C(CCCc1cnn[nH]1)N1CC(c2ccc(N3CCC(C(F)(F)F)C3)nc2)C1` (racemic) [Example 45, rac-4-(1H-Triazol-5-yl)-1-[3-[6-[3-(trifluoro-methyl)pyrrolidin-1-yl]-3-pyridyl]azetidin-1-yl]butan-1-one] yielded an IC50 of 321 nM. That is a sub-micromolar value.
The compound `O=C1CCC(CCC(=O)N2CC(c3ccc(CC(F)(F)F)cc3)C2)N1` (single isomer, unassigned) [Example 7, (−)- or (+)-5-[3-Oxo-3-[3-[4-(2,2,2-trifluoroethyl)phenyl]azetidin-1-yl]propyl]pyrrolidin-2-one] registered an IC50 of 2580 nM.
`O=C1CCC(CCC(=O)N2CC(c3ccc(CC(F)(F)F)cc3)C2)N1` (single isomer, unassigned) [Example 8, (+)- or (−)-5-[3-Oxo-3-[3-[4-(2,2,2-trifluoroethyl)phenyl]azetidin-1-yl]propyl]pyrrolidin-2-one] displayed an IC50 of 26 nM.
Turning to `CC1(CCC(=O)N2CC(OCc3ccc(C(F)(F)F)cc3F)C2)CCC(=O)N1` (single isomer, unassigned) [Example 13, (−)- or (+)-5-[3-[3-[[2-Fluoro-4-(trifluoromethyl)phenyl]methoxy]azetidin-1-yl]-3-oxo-propyl]-5-methyl-pyrrolidin-2-one], the IC50 was no less than 12500 nM.
For the compound `CC1(CCC(=O)N2CC(c3ccc(C4(C(F)(F)F)CC4)cc3)C2)CCC(=O)N1` (single isomer, unassigned) [Example 15, (−)- or (+)-5-Methyl-5-[3-oxo-3-[3-[4-[1-(trifluoromethyl)cyclopropyl]phenyl]azetidin-1-yl]propyl]pyrrolidin-2-one], the IC50 was no less than 12500 nM.
To `CC1(CCC(=O)N2CC(c3ccc(C4(C(F)(F)F)CC4)cc3)C2)CCC(=O)N1` (single isomer, unassigned) [Example 16, (+)- or (−)-5-Methyl-5-[3-oxo-3-[3-[4-[1-(trifluoromethyl)cyclopropyl]phenyl]azetidin-1-yl]propyl]pyrrolidin-2-one] belongs 213 nM.
`CC1(CCC(=O)N2CC(c3ccc(Oc4cccc(Cl)c4)nc3)C2)CCC(=O)N1` (single isomer, unassigned) [Example 17, (−)- or (+)-5-[3-[3-[6-(3-Chlorophenoxy)-3-pyridyl]azetidin-1-yl]-3-oxo-propyl]-5-methyl-pyrrolidin-2-one] yielded a half-maximal inhibitory concentration (IC50) of no less than 12500 nM.
`CC1(CCC(=O)N2CC(c3ccc(Oc4cccc(Cl)c4)nc3)C2)CCC(=O)N1` (single isomer, unassigned) [Example 18, (+)- or (−)-5-[3-[3-[6-(3-Chlorophenoxy)-3-pyridyl]azetidin-1-yl]-3-oxo-propyl]-5-methyl-pyrrolidin-2-one] yielded an IC50 of 2670 nM. That is a single-digit micromolar value.
`CS(=O)(=O)c1ccc(C(c2ccccc2)C2CCN(C(=O)CC[C@@H]3COC(=O)N3)CC2)cc1` (single isomer, unassigned) [Example 83, (+)- or (−)-(4R)-4-[3-[4-[(4-Methyl-sulfonylphenyl)-phenyl-methyl]-1-piperidyl]-3-oxo-propyl]oxazolidin-2-one] yielded an IC50 of 44 nM. This IC50 lies about 61-fold lower than the previous one.
The compound `CS(=O)(=O)c1ccc(C(c2ccccc2)C2CCN(C(=O)CC[C@@H]3COC(=O)N3)CC2)cc1` (single isomer, unassigned) [Example 84, (−)- or (+)-(−)-(4R)-4-[3-[4-[(4-Methyl-sulfonylphenyl)-phenyl-methyl]-1-piperidyl]-3-oxo-propyl]oxazolidin-2-one] displayed a half-maximal inhibitory concentration (IC50) of 294 nM.
As to `O=C1NC(COC(=O)N2CC(c3ccc(N4CCC(C(F)(F)F)C4)nc3)C2)CO1` (single isomer, unassigned) [Example 86, (−)- or (+)-[(4S)-2-Oxooxazolidin-4-yl]methyl 3-[6-[3-(trifluoromethyl)pyrrolidin-1-yl]-3-pyridyl]azetidine-1-carboxylate], the IC50 stood at 54 nM.
As for `O=C1NC(COC(=O)N2CC(c3ccc(N4CCC(C(F)(F)F)C4)nc3)C2)CO1` (single isomer, unassigned) [Example 87, (+)- or (−)-[(4S)-2-Oxooxazolidin-4-yl]methyl 3-[6-[3-(trifluoromethyl)pyrrolidin-1-yl]-3-pyridyl]azetidine-1-carboxylate], half-maximal inhibition (IC50) required 32 nM.
On to `O=C1N[C@H](CCC(=O)N2CC(c3ccc([C@H]4CC[C@@H](C(F)(F)F)CC4)nc3)C2)CO1` (single isomer, unassigned) [Example 200], for which half-maximal inhibition (IC50) required 1 nM.
The compound `O=C1N[C@H](CCC(=O)N2CC(c3ccc([C@H]4CC[C@H](C(F)(F)F)CC4)nc3)C2)CO1` (single isomer, unassigned) [Example 201] came in with an IC50 of 9 nM.
On to `O=C1N[C@H](CCC(=O)N2CC(c3ccc(N4CCC(O)(C(F)(F)F)C4)nc3)C2)CO1` (single isomer, unassigned) [Example 204, (−)- or (+)-(4R)-4-[3-[3-[6-[3-Hydroxy-3-(trifluoromethyl)pyrrolidin-1-yl]-3-pyridyl]azetidin-1-yl]-3-oxo-propyl]oxazolidin-2-one], for which the IC50 came to 98 nM. Compared with the last compound, the IC50 is about 11-fold higher.
`O=C1N[C@H](CCC(=O)N2CC(c3ccc(N4CCC(C(F)(F)F)C4)nc3)C2)CO1` (single isomer, unassigned) [Example 206] gave an IC50 of 16 nM.
`O=C1N[C@H](CCC(=O)N2CC(c3cnc(N4CCC(C(F)(F)F)C4)nc3)C2)CO1` (single isomer, unassigned) [Example 208, (−)- or (+)-(4R)-4-[3-Oxo-3-[3-[2-[3-(trifluoromethyl)pyrrolidin-1-yl]pyrimidin-5-yl]azetidin-1-yl]propyl]oxazolidin-2-one] showed an IC50 of 138 nM.
To `O=C1NC(CCC(=O)N2CC(c3cnc(N4CCC(C(F)(F)F)C4)nc3)C2)CO1` (single isomer, unassigned) [Example 209, (+)- or (−)-(4R)-4-[3-Oxo-3-[3-[2-[3-(trifluoromethyl)pyrrolidin-1-yl]pyrimidin-5-yl]azetidin-1-yl]propyl]oxazolidin-2-one] belongs 131 nM.
For `O=C1N[C@H](CCC(=O)N2CC3(CCC(Cc4ccc(C(F)(F)F)nc4)C3)C2)CO1` (single isomer, unassigned) [Example 210, (−)- or (+)-(4R)-4-[3-Oxo-3-[6-[[6-(trifluoromethyl)-3-pyridyl]methyl]-2-azaspiro[3.4]octan-2-yl]propyl]oxazolidin-2-one], the concentration for half-maximal inhibition (IC50) was determined as 59 nM.
For the compound `O=C1NC(CCC(=O)N2CC3(CCC(Cc4ccc(C(F)(F)F)nc4)C3)C2)CO1` (single isomer, unassigned) [Example 211, (+)- or (−)-(4R)-4-[3-Oxo-3-[6-[[6-(trifluoromethyl)-3-pyridyl]methyl]-2-azaspiro[3.4]octan-2-yl]propyl]oxazolidin-2-one], the IC50 worked out at 84 nM.
Take `CS(=O)(=O)c1cc(Cl)ccc1-c1ccc(C2CN(C(=O)CCC3CNC(=O)N3)C2)cc1` (single isomer, unassigned) [Example 217, (−)- or (+)-4-[3-[3-[4-(4-Chloro-2-methylsulfonyl-phenyl)phenyl]azetidin-1-yl]-3-oxo-propyl]imidazolidin-2-one]: the IC50 is 33 nM.
As for `CS(=O)(=O)c1cc(Cl)ccc1-c1ccc(C2CN(C(=O)CCC3CNC(=O)N3)C2)cc1` (single isomer, unassigned) [Example 218, (+)- or (−)-4-[3-[3-[4-(4-Chloro-2-methylsulfonyl-phenyl)phenyl]azetidin-1-yl]-3-oxo-propyl]imidazolidin-2-one], the IC50 is 1210 nM.
Compound `O=C1CCC(CCC(=O)N2CC(OCc3ccc(C(F)(F)F)cc3F)C2)N1` (single isomer, unassigned; (+)) [Example 2, (+)-5-[3-[3-[[2-Fluoro-4-(trifluoromethyl)phenyl]methoxy]azetidin-1-yl]-3-oxo-propyl]pyrrolidin-2-one] returned a concentration for half-maximal inhibition (IC50) of 19 nM.
In turn, `CC(C)(C)c1ccc(C2CN(C(=O)CCC3CCC(=O)N3)C2)cc1` (single isomer, unassigned; (+)) [Example 4, (+)-5-[3-[3-(4-tert-Butylphenyl)azetidin-1-yl]-3-oxo-propyl]pyrrolidin-2-one] registered an IC50 of 5 nM.
The compound `O=C1CCC(CCC(=O)N2CC(c3ccc(C4(C(F)(F)F)CC4)cc3)C2)N1` (single isomer, unassigned; (+)) [Example 6, (+)-5-[3-Oxo-3-[3-[4-[1-(trifluoromethyl)cyclopropyl]phenyl]azetidin-1-yl]propyl]pyrrolidin-2-one] displayed an IC50 of 3 nM.
Take `O=C1CCC(CCC(=O)N2CC(c3ccc(-c4ccc(F)cc4F)cc3)C2)N1` (single isomer, unassigned; (+)) [Example 10, (+)-5-[3-[3-[4-(2,4-Difluorophenyl)phenyl]azetidin-1-yl]-3-oxo-propyl]pyrrolidin-2-one]: half-maximal inhibition (IC50) required 5 nM.
